Test results taken from patent publication US12642799B2, “Composition and method for treating COVID-19” (University of South Florida, priority 2021, dated 2026).

Columns and labels:
[1] = tested on: TNFα, IL-6; assay type: cell-based
[2] = tested on: SARS CoV-2 (variants) infected Calu3 cells; assay type: cell-based

Molecule	inhibition of inflammatory cytokine production (TNFα, IL-6 mRNA) [1]	inhibition of viral replication (SARS CoV2 N protein mRNA) [2]
N[C@@H](CC(=O)N1CCn2c(nnc2C(F)(F)F)C1)Cc1cc(F)c(F)cc1F [sitagliptin]	equally effective	equally effective
sitagliptin monohydrate phosphate	equally effective	equally effective
